Source: patent US20220153734A1, “Pyrazolopyridine Compounds For IRE1 Inhibition” (Optikira, LLC, priority 2019, published 2022)

Assays:
[1] = target: T1, IRE1α (Homo sapiens, UniProt O75460); assay: Biochemical assay to detect inhibition of kinase activity of IRE1α (ADP-Glo)
T1 construct: purchased Signal Chem E31-11G
Method: Biochemical Assays to Detect Inhibition of Kinase Activity of IRE1α
The kinase reactions were performed in 384 well white ProxiPlate-384 Plus plates (PERKIN Elmer 6008280) using 25 mM MOPS assay buffer with 1 mM dithiothreitol, 25 mM MgCl2, 12.5 mM β-glycerophosphate, 5 mM EGTA, and 50 μg/mL BSA. Test compounds were prepared on the day of assay and dispensed using D300 digital dispenser as a 10-point ½ log dilution series in duplicate, normalized to a final DMSO concentration of 3%. Test compounds were pre-incubated for 30 min at room temperature with 10 nM IRE1α kinase (E31-11G from Signal Chem) in 2.5 μL of assay buffer and the reaction started by addition of 2.5 μL of ATP in assay buffer, to give a final ATP concentration of 100 μM and 5 nM IRE1α kinase. After 4 hours incubation at room temperature the reactions were stopped and the kinase activity determined using the ADP-Glo™ reagent from Promega, according to the manufacturer's instructions. Luminescence was measured on a luminometer (EnVision, PerkinElmer) and IC50 values calculated by fitting a sigmoidal curve to percent inhibition of control versus Log10 of compound concentration.

[2] = target: T1, IRE1α; assay: Biochemical assay: inhibition of RNase activity of IRE1α; details: enzyme 0.325 nM, substrate 100 nM, 20 minutes
Summary of the method: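 RNase cleavage monitored as dequenching of a 5′ Alexa Fluor 647/3′ quencher RNA oligo (100 nM), stopped with 5 M urea after 20 min at room temperature. Enzyme 0.325 nM, preceded by 30 min compound pre-incubation; buffer Tris/MgCl2/KCl/DTT/Tween, 4% DMSO final. IC50 from curve fit of % inhibition.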

[3] = tested on: ARPE-19 cells stably expressing XBP1 (a.a. 1-376); assay: Cellular XBP1 splicing assay (NanoLuc luciferase, thapsigargin); type: cell-based; details: thapsigargin 150 nM
Summary of the method: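 ARPE-19 cells carrying an XBP1(1-376)-NanoLuc splicing reporter were pretreated with compound (10-point ½-log series, 0.117% DMSO) for 30 min, then stressed with 150 nM thapsigargin for 4 h at 37° C. Luminescence was read, and IC50 values came from sigmoidal fits of percent inhibition of control.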

T1 sequence (O75460 468-977 limits assumed): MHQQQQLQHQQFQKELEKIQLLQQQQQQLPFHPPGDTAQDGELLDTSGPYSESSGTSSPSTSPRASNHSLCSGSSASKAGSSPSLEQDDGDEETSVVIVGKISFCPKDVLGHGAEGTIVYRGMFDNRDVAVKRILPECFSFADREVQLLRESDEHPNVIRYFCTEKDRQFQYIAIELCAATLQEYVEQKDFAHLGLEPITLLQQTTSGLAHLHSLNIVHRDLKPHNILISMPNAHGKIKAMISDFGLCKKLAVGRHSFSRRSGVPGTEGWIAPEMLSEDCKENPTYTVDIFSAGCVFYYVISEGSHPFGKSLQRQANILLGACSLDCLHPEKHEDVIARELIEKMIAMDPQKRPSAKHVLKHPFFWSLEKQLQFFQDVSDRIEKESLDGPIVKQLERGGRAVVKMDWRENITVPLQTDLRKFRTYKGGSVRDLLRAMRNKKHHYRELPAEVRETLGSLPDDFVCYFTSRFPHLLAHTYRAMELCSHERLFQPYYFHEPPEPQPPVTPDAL

Structure (SMILES) | IC50 [1] | IC50 [2] | IC50 ([3]; 4 hour) | IC50 ([3]; Homo sapiens, ARPE-19, 4 h)
CCn1nc(-c2ccc(NS(=O)(=O)Cc3ccccc3Cl)c(F)c2)c2c(N)ncc(C3=CCC(NC4COC4)CC3)c21 (single isomer, unassigned) [Compound B28, N-(4-(4-amino-1-ethyl-7-(4-(oxetan-3-ylamino)cyclohex-1-en-1-yl)-1H-pyrazolo[4,3-c]pyridin-3-yl)-2-fluorophenyl)-1-(2-chlorophenyl)methanesulfonamide] | 3.9 nM | 2.4 nM | 27 nM | 
CCn1nc(-c2cc(F)c(NS(=O)(=O)Cc3ccccc3Cl)cc2F)c2c(N)ncc([C@H]3CC[C@H](NC4COC4)CC3)c21 [Compound A42, N-(4-(4-amino-1-ethyl-7-((1r,4r)-4-(oxetan-3-ylamino)cyclohexyl)-1H-pyrazolo[4,3-c]pyridin-3-yl)-2,5-difluorophenyl)-1-(2-chlorophenyl)methanesulfonamide] | 3 nM | 3.2 nM |  | 19 nM
CCn1nc(-c2cc(F)c(NS(=O)(=O)Cc3ccccc3F)cc2F)c2c(N)ncc([C@H]3CC[C@H](NC4COC4)CC3)c21 [Compound A43, N-(4-(4-amino-1-ethyl-7-((1r,4r)-4-(oxetan-3-ylamino)cyclohexyl)-1H-pyrazolo[4,3-c]pyridin-3-yl)-2,5-difluorophenyl)-1-(2-fluorophenyl)methanesulfonamide] | 3.2 nM | 5.4 nM |  | 52 nM
CCn1nc(-c2cc(F)c(NS(=O)(=O)c3ccccc3Cl)cc2F)c2c(N)ncc([C@H]3CC[C@H](NC4COC4)CC3)c21 [Compound A44, N-(4-(4-amino-1-ethyl-7-((1r,4r)-4-(oxetan-3-ylamino)cyclohexyl)-1H-pyrazolo[4,3-c]pyridin-3-yl)-2,5-difluorophenyl)-2-chlorobenzenesulfonamide] | 2.8 nM | 8.2 nM |  | 31 nM
CC(C)n1nc(-c2ccc(NS(=O)(=O)c3ccccc3F)c(F)c2)c2c(N)ncc([C@H]3CC[C@H](N(C)C4COC4)CC3)c21 [Compound A46] | 3.6 nM | 7.7 nM |  | 8.4 nM
CC(C)n1nc(-c2cc(F)c(NS(=O)(=O)Cc3ccccc3Cl)cc2F)c2c(N)ncc([C@H]3CC[C@H](NC4COC4)CC3)c21 [Compound A47, N-(4-(4-amino-1-isopropyl-7-((1r,4r)-4-(oxetan-3-ylamino)cyclohexyl)-1H-pyrazolo[4,3-c]pyridin-3-yl)-2,5-difluorophenyl)-1-(2-chlorophenyl)methanesulfonamide] | 2 nM | 1.3 nM |  | 5.6 nM
CC(C)n1nc(-c2cc(F)c(NS(=O)(=O)Cc3ccccc3F)cc2F)c2c(N)ncc([C@H]3CC[C@H](NC4COC4)CC3)c21 [Compound A48, N-(4-(4-amino-1-isopropyl-7-((1r,4r)-4-(oxetan-3-ylamino)cyclohexyl)-1H-pyrazolo[4,3-c]pyridin-3-yl)-2,5-difluorophenyl)-1-(2-fluorophenyl)methanesulfonamide] | 1.6 nM | 1.9 nM |  | 6.4 nM
CC(C)n1nc(-c2cc(F)c(NS(=O)(=O)c3ccccc3Cl)cc2F)c2c(N)ncc([C@H]3CC[C@H](NC4COC4)CC3)c21 [Compound A49, N-(4-(4-amino-1-isopropyl-7-((1r,4r)-4-(oxetan-3-ylamino)cyclohexyl)-1H-pyrazolo[4,3-c]pyridin-3-yl)-2,5-difluorophenyl)-2-chlorobenzenesulfonamide] | 2.1 nM | 6 nM |  | 4.3 nM
CC(C)n1nc(-c2ccc(NS(=O)(=O)Cc3ccccc3Cl)c(F)c2)c2c(N)ncc([C@H]3CC[C@H](N(C)C)CC3)c21 [Compound A51, N-(4-(4-amino-7-((1r,4r)-4-(dimethylamino)cyclohexyl)-1-isopropyl-1H-pyrazolo[4,3-c]pyridin-3-yl)-2-difluorophenyl)-1-(2-chlorophenyl)methanesulfonamide] | 2.7 nM | 0.5 nM |  | 2 nM

Results, then the molecule that gave them:

IC50 [1] | IC50 [2] | IC50 ([3]; 4 hour) | IC50 ([3]; Homo sapiens, ARPE-19, 4 h) | Structure (SMILES)
1.9 nM | 5.7 nM |  | 7.9 nM | CC(C)n1nc(-c2ccc(NS(=O)(=O)c3ccccc3F)c(F)c2)c2c(N)ncc([C@H]3CC[C@H](NC4COC4)CC3)c21 [Compound A1, N-(4-(4-amino-1-isopropyl-7-((1r,4r)-4-(oxetan-3-ylamino)cyclohexyl)-1H-pyrazolo[4,3-c]pyridin-3-yl)-2-fluorophenyl)-2-fluorobenzenesulfonamide]
3 nM | 3.5 nM |  | 4.3 nM | CC(C)n1nc(-c2ccc(NS(=O)(=O)c3ccccc3Cl)c(F)c2)c2c(N)ncc([C@H]3CC[C@H](NC4COC4)CC3)c21 [Compound A34, N-(4-(4-amino-1-isopropyl-7-((1r,4r)-4-(oxetan-3-ylamino)cyclohexyl)-1H-pyrazolo[4,3-c]pyridin-3-yl)-2-fluorophenyl)-2-chlorobenzenesulfonamide]
4.3 nM | 8 nM |  | 16 nM | Nc1ncc([C@H]2CC[C@H](NC3COC3)CC2)c2c1c(-c1ccc(NS(=O)(=O)c3ccccc3F)c(F)c1)nn2C1CC1 [Compound A41, N-(4-(4-amino-1-cyclopropyl-7-((1r,4r)-4-(oxetan-3-ylamino)cyclohexyl)-1H-pyrazolo[4,3-c]pyridin-3-yl)-2-fluorophenyl)-2-fluorobenzenesulfonamide]
6.5 nM | 16 nM |  | 94 nM | CCn1nc(-c2cc(F)c(NS(=O)(=O)c3ccccc3F)cc2F)c2c(N)ncc([C@H]3CC[C@H](NC4COC4)CC3)c21 [Compound A45, N-(4-(4-amino-1-ethyl-7-((1r,4r)-4-(oxetan-3-ylamino)cyclohexyl)-1H-pyrazolo[4,3-c]pyridin-3-yl)-2,5-difluorophenyl)-2-fluorobenzenesulfonamide]
3.3 nM | 6.9 nM |  | 17 nM | CC(C)n1nc(-c2cc(F)c(NS(=O)(=O)c3ccccc3F)cc2F)c2c(N)ncc([C@H]3CC[C@H](NC4COC4)CC3)c21 [Compound A50, N-(4-(4-amino-1-isopropyl-7-((1r,4r)-4-(oxetan-3-ylamino)cyclohexyl)-1H-pyrazolo[4,3-c]pyridin-3-yl)-2,5-difluorophenyl)-2-fluorobenzenesulfonamide]
4.6 nM | 6.1 nM |  | 15 nM | CCn1nc(-c2ccc(NS(=O)(=O)c3ccccc3Cl)c(F)c2)c2c(N)ncc([C@H]3CC[C@H](NC4COC4)CC3)c21 [Compound A52, N-(4-(4-amino-1-ethyl-7-((1r,4r)-4-(oxetan-3-ylamino)cyclohexyl)-1H-pyrazolo[4,3-c]pyridin-3-yl)-2-fluorophenyl)-2-chlorobenzenesulfonamide]
1.9 nM | 1.5 nM |  | 9.2 nM | CCn1nc(-c2ccc(NS(=O)(=O)Cc3ccccc3F)c(F)c2)c2c(N)ncc([C@H]3CC[C@H](NC4COC4)CC3)c21 [Compound A53, N-(4-(4-amino-1-ethyl-7-((1r,4r)-4-(oxetan-3-ylamino)cyclohexyl)-1H-pyrazolo[4,3-c]pyridin-3-yl)-2-fluorophenyl)-1-(2-fluorophenyl)methanesulfonamide]
0.9 nM | 0.4 nM |  | 2.5 nM | CC(C)n1nc(-c2ccc(NS(=O)(=O)Cc3ccccc3F)c(F)c2)c2c(N)ncc([C@H]3CC[C@H](NC4COC4)CC3)c21 [Compound A57, N-(4-(4-amino-1-isopropyl-7-((1r,4r)-4-(oxetan-3-ylamino)cyclohexyl)-1H-pyrazolo[4,3-c]pyridin-3-yl)-2-fluorophenyl)-1-(2-fluorophenyl)methanesulfonamide]
